Laboratory results reported in the supplement of paper PMC10307832.

Legend:
Assay in all cases: relative viability (nuclei count vs DMSO), 5 days (fraction); higher = more cells survive
Tipifarnib + Pemetrexed = compound: Cn1cncc1[C@@](N)(c1ccc(Cl)cc1)c1ccc2c(c1)c(-c1cccc(Cl)c1)cc(=O)n2C [Tipifarnib] + Nc1nc2[nH]cc(CCc3ccc(C(=O)N[C@@H](CCC(=O)O)C(=O)O)cc3)c2c(=O)[nH]1 [Pemetrexed] (partner 0.2 µM)
Summary of the method: (§1)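 After 5 days of treatment, lung cancer cells in 1536-well plates were fixed and stained in a single step (final 0.05% Triton X-100, 1% formaldehyde, 1 ug/ml Hoechst) and their nuclei counted on 4× images. Treatment had been applied by pin tool the day after seeding as one drug alone or as a fixed anchor-drug dose with five library-drug doses (not always all listed) in √10 steps. Relative viability is the nuclei count of treated wells divided by that of vehicle wells, and values are medians of duplicate plates.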

Tipifarnib + OSI-027 = compound: Cn1cncc1[C@@](N)(c1ccc(Cl)cc1)c1ccc2c(c1)c(-c1cccc(Cl)c1)cc(=O)n2C [Tipifarnib] + COc1cccc2cc(-c3nc([C@H]4CC[C@H](C(=O)O)CC4)n4ncnc(N)c34)[nH]c12 [OSI-027] (partner 0.5 µM)
Summary of the method: as §1

Tipifarnib + Foretinib = compound: Cn1cncc1[C@@](N)(c1ccc(Cl)cc1)c1ccc2c(c1)c(-c1cccc(Cl)c1)cc(=O)n2C [Tipifarnib] + COc1cc2c(Oc3ccc(NC(=O)C4(C(=O)Nc5ccc(F)cc5)CC4)cc3F)ccnc2cc1OCCCN1CCOCC1 [Foretinib] (partner 0.25 µM)
Summary of the method: as §1

Tipifarnib + AZD7762 = compound: Cn1cncc1[C@@](N)(c1ccc(Cl)cc1)c1ccc2c(c1)c(-c1cccc(Cl)c1)cc(=O)n2C [Tipifarnib] + NC(=O)Nc1cc(-c2cccc(F)c2)sc1C(=O)N[C@H]1CCCNC1 [AZD7762] (partner 0.2 µM)
Summary of the method: as §1

Cell Line | relative viability (Tipifarnib + Pemetrexed; first compound 0.01 µM) | relative viability (Tipifarnib + Pemetrexed; first compound 0.03162 µM) | relative viability (Tipifarnib + Pemetrexed; first compound 0.1 µM) | relative viability (Tipifarnib + Pemetrexed; first compound 0.3162 µM) | relative viability (Tipifarnib + Pemetrexed; first compound 1 µM) | relative viability (Tipifarnib + OSI-027; first compound 0.01 µM) | relative viability (Tipifarnib + OSI-027; first compound 0.03162 µM) | relative viability (Tipifarnib + OSI-027; first compound 0.1 µM) | relative viability (Tipifarnib + OSI-027; first compound 0.3162 µM) | relative viability (Tipifarnib + OSI-027; first compound 1 µM) | relative viability (Tipifarnib + Foretinib; first compound 0.01 µM) | relative viability (Tipifarnib + Foretinib; first compound 0.03162 µM) | relative viability (Tipifarnib + Foretinib; first compound 0.1 µM) | relative viability (Tipifarnib + Foretinib; first compound 0.3162 µM) | relative viability (Tipifarnib + Foretinib; first compound 1 µM) | relative viability (Tipifarnib + AZD7762; first compound 0.01 µM) | relative viability (Tipifarnib + AZD7762; first compound 0.03162 µM) | relative viability (Tipifarnib + AZD7762; first compound 0.1 µM) | relative viability (Tipifarnib + AZD7762; first compound 0.3162 µM) | relative viability (Tipifarnib + AZD7762; first compound 1 µM)
COR-L 105 | 1.16 | 1.11 | 0.814 | 0.784 | 0.793 | 0.759 | 0.588 | 0.5 | 0.427 | 0.417 | 1.18 | 0.872 | 0.897 | 0.504 | 0.604 | – | – | – | – | –
LK-2 | 0.31 | 0.313 | 0.279 | 0.232 | 0.122 | 0.183 | 0.193 | 0.195 | 0.165 | 0.164 | 1.15 | 1.02 | 1.03 | 0.578 | 0.726 | 0.769 | 0.357 | 0.256 | 0.17 | 0.104
NCI-H727 | – | – | – | – | – | 0.599 | 0.535 | 0.459 | 0.477 | 0.427 | 1.04 | 0.875 | 0.795 | 0.976 | 0.944 | 0.613 | 0.608 | 0.519 | 0.504 | 0.571
RERF-LC-KJ | 0.474 | 0.6 | 0.46 | 0.427 | 0.362 | 0.529 | 0.427 | 0.392 | 0.41 | 0.309 | 0.917 | 0.965 | 0.799 | 0.773 | 0.393 | 1.02 | 1.22 | 0.975 | 0.656 | 0.243
NCI-H2023 | 0.242 | 0.289 | 0.19 | 0.212 | 0.198 | 0.412 | 0.273 | 0.225 | 0.143 | 0.132 | 0.958 | 0.7 | 0.609 | 0.336 | 0.505 | – | – | – | – | –
NCI-H322M | 0.605 | 0.681 | 0.68 | 0.641 | 0.625 | 0.5 | 0.492 | 0.513 | 0.415 | 0.445 | 0.964 | 1.15 | 0.849 | 0.876 | 0.783 | 0.561 | 0.591 | 0.553 | 0.474 | 0.442
NCI-H1666 | 0.908 | 0.889 | 0.766 | 0.844 | 0.842 | 0.73 | 0.737 | 0.585 | 0.566 | 0.602 | 0.923 | 0.888 | 0.866 | 0.873 | 0.748 | 0.892 | 0.807 | 0.794 | 0.661 | 0.554
NCI-H1648 | 0.6 | 0.746 | 0.842 | 0.636 | 0.305 | 0.268 | 0.258 | 0.271 | 0.307 | 0.259 | – | – | – | – | – | 0.625 | 0.535 | 0.681 | 0.551 | 0.341
NCI-H2087 | 0.58 | 0.569 | 0.383 | 0.326 | 0.373 | 0.464 | 0.205 | 0.232 | 0.161 | 0.164 | 0.999 | 0.371 | 0.333 | 0.292 | 0.3 | 0.99 | 0.48 | 0.249 | 0.241 | 0.395
LU99A | 0.201 | 0.202 | 0.2 | 0.217 | 0.196 | 0.242 | 0.229 | 0.224 | 0.238 | 0.236 | 0.757 | 0.651 | 0.653 | 0.497 | 0.395 | 0.277 | 0.272 | 0.255 | 0.182 | 0.224
HCC-366 | 0.145 | 0.143 | 0.167 | 0.127 | 0.0507 | 1.01 | 0.778 | 0.265 | 0.18 | 0.0734 | 1.04 | 0.995 | 0.586 | 0.631 | 0.121 | 0.281 | 0.304 | 0.171 | 0.0878 | 0.0371
EKVX | 0.433 | 0.396 | 0.39 | 0.411 | 0.289 | 0.728 | 0.7 | 0.699 | 0.516 | 0.39 | 0.818 | 0.767 | 0.811 | 0.705 | 0.324 | 0.795 | 0.756 | 0.607 | 0.537 | 0.337
NCI-H522 | 1.08 | 1.2 | 0.886 | 0.973 | 0.839 | 0.66 | 0.709 | 0.725 | 0.584 | 0.615 | – | – | – | – | – | 0.925 | 1.03 | 0.875 | 0.754 | 0.662
NCI-H1755 | 0.41 | 0.524 | 0.446 | 0.474 | 0.425 | 0.75 | 0.603 | 0.677 | 0.622 | 0.452 | 0.88 | 0.889 | 0.908 | 0.849 | 0.456 | 0.411 | 0.453 | 0.416 | 0.365 | 0.395
NCI-H647 | 0.209 | 0.213 | 0.157 | 0.139 | 0.116 | 0.409 | 0.585 | 0.438 | 0.299 | 0.101 | 1.44 | 0.78 | 0.95 | 0.379 | 0.534 | 0.405 | 0.48 | 0.308 | 0.116 | 0.0944
LC-2-ad | 0.273 | 0.271 | 0.283 | 0.265 | 0.275 | 0.765 | 0.755 | 0.522 | 0.499 | 0.438 | 0.968 | 0.896 | 0.807 | 0.609 | 0.657 | 0.813 | 0.68 | 0.561 | 0.474 | 0.359
NCI-H1793 | 0.89 | 0.748 | 0.703 | 0.522 | 0.389 | 0.254 | 0.326 | 0.204 | 0.215 | 0.216 | 0.626 | 0.577 | 0.616 | 0.44 | 0.411 | 0.605 | 0.426 | 0.379 | 0.302 | 0.2
